Patent US9938811B2, “Method of enhancing fracture complexity using far-field divert systems” (Baker Hughes, LLC, priority 2013, dated 2018)

Assay: Dissolution in deionized water or HCl 15% (Example 1)
Type: physicochemical
Conditions: 20 hours at 180° F., then 3 hours at room temperature
Procedure: Phthalic anhydride (obtained from a commercial supplier) and Sample A (8 g of each) were first mixed with 100 mL deionized water or HCl 15% and maintained for 20 hours at 180° F., and then cooled down to room temperature and kept for 3 hours.

Question: For `O=C1OC(=O)c2ccccc21` [Commercial Phthalic Anhydride, Phthalic anhydride], which “Dissolved (%)” value (8 g in 100 mL HCl 15%) is on record?
Answer: Its value is 4%.

Question: What about the “Dissolved (%)” value (8 g in 100 mL deionized water) of the same compound?
Answer: The value was 6%.
